{"source": "paper PMC11240139", "about": "“Exploring the antitumor potential of novel quinoline derivatives via tubulin polymerization inhibition in breast cancer; design, synthesis and molecular docking” (RSC Advances, 2024)", "type_in_all_cases": "cell-based", "key": {"COLO 205 (colon cancer)": {"test_system": "COLO 205 (colon cancer)", "assay": "NCI-60 SRB cytotoxicity screen", "conditions": "Homo sapiens"}, "[1]": {"test_system": "60 cancer cell lines (NCI)", "assay": "NCI-60 single-dose screen, overall verdict over the panel", "conditions": "single dose 10 μM, whole panel", "in_short": "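Compounds were tested at a single 10^−5 M dose across the NCI 60 cell line panel, with cells preincubated 24 h before treatment. Viability was measured by TCA fixation and sulforhodamine B staining, absorbance 540 nm. % cytotoxicity = [1 − (sample/negative control absorbance)] × 100.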"}, "OVCAR-4 (ovarian cancer)": {"test_system": "OVCAR-4 (ovarian cancer)", "assay": "NCI-60 SRB cytotoxicity screen"}, "SK-MEL-2 (melanoma)": {"test_system": "SK-MEL-2 (melanoma)", "assay": "NCI-60 SRB cytotoxicity screen"}, "CAKI-1 (renal cancer)": {"test_system": "CAKI-1 (renal cancer)", "assay": "NCI-60 SRB cytotoxicity screen"}, "SN12C (renal cancer)": {"test_system": "SN12C (renal cancer)", "assay": "NCI-60 SRB cytotoxicity screen"}, "[2]": {"test_system": "HOP-92 (non-small cell lung cancer)", "assay": "NCI-60 SRB cytotoxicity screen"}, "SF-268 (CNS cancer)": {"test_system": "SF-268 (CNS cancer)", "assay": "NCI-60 SRB cytotoxicity screen"}, "HCT-116 (colon cancer)": {"test_system": "HCT-116 (colon cancer)", "assay": "NCI-60 SRB cytotoxicity screen"}, "SR (leukemia)": {"test_system": "SR (leukemia)", "assay": "NCI-60 SRB cytotoxicity screen"}, "RXF 393 (renal cancer)": {"test_system": "RXF 393 (renal cancer)", "assay": "NCI-60 SRB cytotoxicity screen"}, "HCC-2998 (colon cancer)": {"test_system": "HCC-2998 (colon cancer)", "assay": "NCI-60 SRB cytotoxicity screen"}, "MDA-MB-231 cells": {"test_system": "MDA-MB-231 cells", "assay": "Cell apoptosis analysis (annexin V-FITC/PI)", "conditions": "MDA-MB-231, IC50 dose, 24 h", "description": "Annexin-V-FITC Apoptosis Detection Kit (Biovision, USA) was used to determine apoptotic cells according to manufacturer's instructions. Briefly, MDA-MB 231 cells (2 × 10^5 cells) were seeded in 6-well plates and cultured for 24 h. […] Cells were collected, washed with PBS and centrifuged. The cells were re-suspended in 500 μL of 1× binding buffer. 5 μL of annexin V-FITC and 5 μL of propidium iodide (PI […]) were added and the cells were incubated in the dark at room temperature for 5 min. The fluorescence of the stained cells was analyzed by flow cytometry using FACSCalibur (BD Biosciences, Mountain View, CA). The data were analyzed using the CellQuest software (BD Biosciences).[53,54]"}, "LOX IMVI (melanoma)": {"test_system": "LOX IMVI (melanoma)", "assay": "NCI-60 SRB cytotoxicity screen"}, "[3]": {"conditions": "Homo sapiens, single dose 10 μM, read-out: growth inhibition (GI%)"}, "[4]": {"conditions": "Homo sapiens, HOP-92, five-dose assay"}, "[5]": {"conditions": "Homo sapiens, HCT-116, five-dose assay"}, "[6]": {"conditions": "Homo sapiens, RXF 393, five-dose assay"}, "[7]": {"conditions": "Homo sapiens, HCC-2998, five-dose assay"}}}
{"molecule": "CCc1cccc2cc(-c3cc(-c4cc(OC)c(OC)c(OC)c4)[nH]c(=O)c3C#N)c(Cl)nc12", "note": "[Compound 4c, 4-(2-Chloro-8-ethylquinolin-3-yl)-2-oxo-6-(3,4,5-trimethoxyphenyl)-1,2-dihydropyridine-3-carbonitrile]", "values": [{"measurement": "LC50", "setting": "COLO 205 (colon cancer); COLO 205, five-dose assay", "value": "> 100", "unit": "µM"}, {"measurement": "inhibition at 10 µM", "setting": "COLO 205 (colon cancer); COLO 205, single dose 10 μM, read-out: growth inhibition (GI%)", "value": "< 10", "unit": "%"}, {"measurement": "cytotoxic activity over the cell lines (in words)", "setting": "[1]", "value": "highest level of cytotoxic activity"}, {"measurement": "GI50", "setting": "OVCAR-4 (ovarian cancer); Homo sapiens, OVCAR-4, five-dose assay", "value": 17.2, "unit": "µM"}, {"measurement": "CC50", "setting": "OVCAR-4 (ovarian cancer); Homo sapiens, OVCAR-4, five-dose assay, read-out: LC50 (the source's name)", "value": "> 100", "unit": "µM"}, {"measurement": "inhibition at 10 µM", "setting": "OVCAR-4 (ovarian cancer); Homo sapiens, OVCAR-4, single dose 10 μM, read-out: growth inhibition (GI%)", "value": "> 100", "unit": "%"}, {"measurement": "TGI", "setting": "OVCAR-4 (ovarian cancer); OVCAR-4, five-dose assay", "value": ">100", "unit": "µM"}, {"measurement": "growth inhibition (GI%)", "setting": "OVCAR-4 (ovarian cancer); OVCAR-4, single dose 10 μM", "value": "lethal effect"}, {"measurement": "GI50", "setting": "SK-MEL-2 (melanoma); Homo sapiens, SK-MEL-2, five-dose assay", "value": 39.8, "unit": "µM"}, {"measurement": "CC50", "setting": "SK-MEL-2 (melanoma); Homo sapiens, SK-MEL-2, five-dose assay, read-out: LC50 (the source's name)", "value": "> 100", "unit": "µM"}, {"measurement": "inhibition at 10 µM", "setting": "SK-MEL-2 (melanoma); Homo sapiens, SK-MEL-2, single dose 10 μM, read-out: growth inhibition (GI%)", "value": 29.8, "unit": "%"}, {"measurement": "TGI", "setting": "SK-MEL-2 (melanoma); SK-MEL-2, five-dose assay", "value": ">100", "unit": "µM"}, {"measurement": "TGI", "setting": "CAKI-1 (renal cancer); CAKI-1, five-dose assay", "value": 22.90, "unit": "µM"}, {"measurement": "GI50", "setting": "CAKI-1 (renal cancer); Homo sapiens, CAKI-1, five-dose assay", "value": 10.7, "unit": "µM"}, {"measurement": "CC50", "setting": "CAKI-1 (renal cancer); Homo sapiens, CAKI-1, five-dose assay, read-out: LC50 (the source's name)", "value": 49.2, "unit": "µM"}, {"measurement": "inhibition at 10 µM", "setting": "CAKI-1 (renal cancer); Homo sapiens, CAKI-1, single dose 10 μM, read-out: growth inhibition (GI%)", "value": 95.1, "unit": "%"}, {"measurement": "GI50", "setting": "SN12C (renal cancer); Homo sapiens, five-dose assay", "value": 10.3, "unit": "µM"}, {"measurement": "LC50 (concentration killing 50% of cells)", "setting": "SN12C (renal cancer); Homo sapiens, five-dose assay", "value": 61.8, "unit": "µM"}, {"measurement": "inhibition at 10 µM", "setting": "SN12C (renal cancer); [3]", "value": "> 100", "unit": "%"}, {"measurement": "TGI", "setting": "SN12C (renal cancer); five-dose assay", "value": 25.20, "unit": "µM"}, {"measurement": "growth inhibition (GI%)", "setting": "SN12C (renal cancer); single dose 10 μM", "value": "lethal effect"}, {"measurement": "TGI", "setting": "[2]; HOP-92, five-dose assay", "value": 9.68, "unit": "µM"}, {"measurement": "growth inhibition (GI%)", "setting": "[2]; HOP-92, single dose 10 μM", "value": "lethal effect"}, {"measurement": "GI50", "setting": "[2]; [4]", "value": 2.37, "unit": "µM"}, {"measurement": "LC50 (lethal concentration 50)", "setting": "[2]; [4]", "value": "> 100", "unit": "µM"}, {"measurement": "inhibition at 10 µM", "setting": "[2]; Homo sapiens, HOP-92, single dose 10 μM, read-out: growth inhibition (GI%)", "value": "> 100", "unit": "%"}, {"measurement": "GI50", "setting": "SF-268 (CNS cancer); Homo sapiens, SF-268, five-dose assay", "value": 13.8, "unit": "µM"}, {"measurement": "CC50", "setting": "SF-268 (CNS cancer); Homo sapiens, SF-268, five-dose assay, read-out: LC50 (the source's name)", "value": "> 100", "unit": "µM"}, {"measurement": "inhibition at 10 µM", "setting": "SF-268 (CNS cancer); Homo sapiens, SF-268, single dose 10 μM, read-out: growth inhibition (GI%)", "value": 34.4, "unit": "%"}, {"measurement": "TGI", "setting": "SF-268 (CNS cancer); SF-268, five-dose assay", "value": ">100", "unit": "µM"}, {"measurement": "TGI", "setting": "HCT-116 (colon cancer); HCT-116, five-dose assay", "value": 33.30, "unit": "µM"}, {"measurement": "GI50", "setting": "HCT-116 (colon cancer); [5]", "value": 14.1, "unit": "µM"}, {"measurement": "LC50", "setting": "HCT-116 (colon cancer); [5]", "value": 78.4, "unit": "µM"}, {"measurement": "inhibition at 10 µM", "setting": "HCT-116 (colon cancer); Homo sapiens, HCT-116, single dose 10 μM, read-out: growth inhibition (GI%)", "value": 69.1, "unit": "%"}, {"measurement": "GI50", "setting": "SR (leukemia); five-dose assay", "value": 5.7, "unit": "µM"}, {"measurement": "LC50", "setting": "SR (leukemia); five-dose assay", "value": "> 100", "unit": "µM"}, {"measurement": "TGI", "setting": "SR (leukemia); five-dose assay", "value": ">100", "unit": "µM"}, {"measurement": "inhibition at 10 µM", "setting": "SR (leukemia); single dose 10 μM, read-out: growth inhibition (GI%)", "value": 77.3, "unit": "%"}, {"measurement": "GI50", "setting": "RXF 393 (renal cancer); [6]", "value": 2.21, "unit": "µM"}, {"measurement": "LC50", "setting": "RXF 393 (renal cancer); [6]", "value": 35.4, "unit": "µM"}, {"measurement": "inhibition at 10 µM", "setting": "RXF 393 (renal cancer); Homo sapiens, RXF 393, single dose 10 μM, read-out: growth inhibition (GI%)", "value": "> 100", "unit": "%"}, {"measurement": "TGI", "setting": "RXF 393 (renal cancer); RXF 393, five-dose assay", "value": 6.69, "unit": "µM"}, {"measurement": "growth inhibition (GI%)", "setting": "RXF 393 (renal cancer); RXF 393, single dose 10 μM", "value": "lethal effect"}, {"measurement": "TGI", "setting": "HCC-2998 (colon cancer); HCC-2998, five-dose assay", "value": ">100", "unit": "µM"}, {"measurement": "GI50", "setting": "HCC-2998 (colon cancer); [7]", "value": 35.7, "unit": "µM"}, {"measurement": "LC50 (50% lethal concentration)", "setting": "HCC-2998 (colon cancer); [7]", "value": "> 100", "unit": "µM"}, {"measurement": "inhibition at 10 µM", "setting": "HCC-2998 (colon cancer); Homo sapiens, HCC-2998, single dose 10 μM, read-out: growth inhibition (GI%)", "value": 47, "unit": "%"}, {"measurement": "Early Apoptosis (%)", "setting": "MDA-MB-231 cells", "value": "7.44 ± 1.59", "unit": "%"}, {"measurement": "Late Apoptosis (%)", "setting": "MDA-MB-231 cells", "value": "17.1 ± 1.9", "unit": "%"}, {"measurement": "Necrosis (%)", "setting": "MDA-MB-231 cells", "value": "4.61 + 2%"}, {"measurement": "GI50", "setting": "LOX IMVI (melanoma); Homo sapiens, five-dose assay", "value": 13.5, "unit": "µM"}, {"measurement": "CC50", "setting": "LOX IMVI (melanoma); Homo sapiens, five-dose assay, read-out: LC50 (the source's name)", "value": 81.3, "unit": "µM"}, {"measurement": "inhibition at 10 µM", "setting": "LOX IMVI (melanoma); [3]", "value": 91.6, "unit": "%"}, {"measurement": "TGI", "setting": "LOX IMVI (melanoma); five-dose assay", "value": 33.20, "unit": "µM"}]}
